Test results reported in the supplement of paper PMC6045584.
± gives the standard deviation of the averaged measurements.

Experiments:
LENVATINIB = compound: COc1cc2nccc(Oc3ccc(NC(=O)NC4CC4)c(Cl)c3)c2cc1C(N)=O [LENVATINIB]; experiment: surviving fraction relative to DMSO-only wells; higher = less growth inhibition; settings: exposure time: 5 days
Method in brief: (§1)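 Surviving fraction is CellTiter-Glo luminescence divided by the median of wells given DMSO only. For this, log-phase tumour cell lines went into 384-well plates at 250–500 cells per well and, 24 hours later, into five days of continuous inhibitor exposure at 0.5, 1, 5, 10, 50, 100, 500 and 1000 nM. Lines were screened three times and retained only if replicate Pearson r >0.7 and median Z' >0.3.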

[1] = compound: C[C@@H]1CN(CC(=O)Nc2ccc3c(c2)Cc2cccc(-c4cc(=O)cc(N5CCOCC5)o4)c2S3)C[C@H](C)O1; experiment: as above; settings: exposure time: 5 days
Method in brief: as §1

Row | Test System | surviving fraction (LENVATINIB; 0.5 nM) | surviving fraction (LENVATINIB; 1 nM) | surviving fraction (LENVATINIB; 5 nM) | surviving fraction (LENVATINIB; 10 nM) | surviving fraction (LENVATINIB; 50 nM) | surviving fraction (LENVATINIB; 100 nM) | surviving fraction (LENVATINIB; 500 nM) | surviving fraction (LENVATINIB; 1000 nM) | surviving fraction ([1]; 0.5 nM) | surviving fraction ([1]; 1 nM) | surviving fraction ([1]; 5 nM) | surviving fraction ([1]; 10 nM) | surviving fraction ([1]; 50 nM) | surviving fraction ([1]; 100 nM) | surviving fraction ([1]; 500 nM) | surviving fraction ([1]; 1000 nM)
1 | 22RV1 PROSTATE | 1.06 ± 0.03 | 1.05 ± 0.056 | 1.05 ± 0.059 | 1.01 ± 0.075 | 1.05 ± 0.11 | 0.97 ± 0.031 | 1.08 ± 0.032 | 1.06 ± 0.12 | 1.07 ± 0.068 | 1.07 ± 0.021 | 1.02 ± 0.045 | 1.04 ± 0.044 | 1.12 ± 0.07 | 1.12 ± 0.074 | 1.08 ± 0.09 | 1.08 ± 0.031
2 | 93VU HEADNECK | 1.05 ± 0.044 | 1.11 ± 0.074 | 1.09 ± 0.12 | 1.167 ± 0.0038 | 1.18 ± 0.087 | 1.19 ± 0.086 | 0.99 ± 0.036 | 1.11 ± 0.024 | 0.955 ± 0.062 | 1.09 ± 0.041 | 1.07 ± 0.069 | 1.05 ± 0.029 | 0.968 ± 0.024 | 0.943 ± 0.067 | 0.893 ± 0.045 | 0.836 ± 0.035
3 | 143B BONE | 0.992 ± 0.0085 | 1.018 ± 0.0064 | 1.04 ± 0.022 | 1.01 ± 0.027 | 1.04 ± 0.012 | 1.05 ± 0.015 | 1.05 ± 0.022 | 1.05 ± 0.013 | 1.03 ± 0.034 | 0.994 ± 0.016 | 1.02 | 1.02 ± 0.03 | 1.03 ± 0.035 | 1.01 ± 0.013 | 1 ± 0.011 | 0.9405 ± 0.0064
4 | A549 LUNG | 1.04 ± 0.067 | 1.03 ± 0.053 | 1.04 ± 0.053 | 1.04 ± 0.061 | 1.06 ± 0.087 | 1.03 ± 0.044 | 1.13 ± 0.073 | 1.12 ± 0.025 | 1.05 ± 0.049 | 1.05 ± 0.025 | 1.08 ± 0.02 | 1.08 ± 0.021 | 1.07 ± 0.012 | 1.098 ± 0.0099 | 1.1 ± 0.016 | 1.13 ± 0.032
5 | ASKA SYNOVIAL | 1.12 ± 0.063 | 1.04 ± 0.045 | 1.13 ± 0.082 | 1.12 ± 0.1 | 1.19 ± 0.11 | 1.21 ± 0.024 | 1.09 ± 0.044 | 1.04 ± 0.041 | 1.17 ± 0.013 | 1.21 ± 0.12 | 1.26 ± 0.11 | 1.21 ± 0.093 | 1.17 ± 0.059 | 1.15 ± 0.1 | 1.13 ± 0.1 | 0.978 ± 0.14
6 | BT20 BREAST | 1.15 ± 0.07 | 1.2 ± 0.077 | 1.21 ± 0.093 | 1.01 ± 0.15 | 1.05 ± 0.088 | 1.05 ± 0.16 | 1.24 ± 0.16 | 1.08 ± 0.2 | 1.04 ± 0.052 | 1.13 ± 0.044 | 1.1 ± 0.1 | 1.06 ± 0.081 | 0.843 ± 0.11 | 0.894 ± 0.089 | 0.902 ± 0.076 | 0.741 ± 0.045
7 | BT549 BREAST | 1.1 ± 0.043 | 1.16 ± 0.27 | 1.24 ± 0.031 | 1.11 ± 0.26 | 1.04 ± 0.15 | 1.15 ± 0.056 | 1.11 ± 0.087 | 1.06 ± 0.11 | 1.1 ± 0.25 | 0.918 ± 0.16 | 0.996 ± 0.083 | 1.08 ± 0.11 | 0.738 ± 0.14 | 0.741 ± 0.14 | 0.774 ± 0.14 | 0.658 ± 0.27
8 | C33A CERVIX | 0.874 ± 0.037 | 0.937 ± 0.094 | 1 ± 0.14 | 1 ± 0.11 | 1.06 ± 0.097 | 1.14 ± 0.056 | 1.02 ± 0.1 | 0.955 ± 0.088 | 0.963 ± 0.082 | 1.01 ± 0.1 | 1.06 ± 0.051 | 1.1 ± 0.074 | 1.06 ± 0.067 | 1.14 ± 0.14 | 0.973 ± 0.059 | 0.827 ± 0.1
